According to PubChem BioAssay AID248 (DTP/NCI, 2004):
Inconclusive results and toxic doses are left out. Rule as the data show it: active = T/C of 150% or more; inactive = T/C below 125%.

System: L1210 leukemia ip in BDF1 mice, survival T/C
Assay: NCI In Vivo Anticancer Drug Screen. Data for tumor model L1210 Leukemia (intraperitoneal) in B6D2F1 (BDF1) mice
Details: endpoint: mean survival time, higher = longer survival
Procedure, shortened: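 Tumor was transplanted into mice, which were then dosed with test compound or vehicle alone. Survival was recorded for each group, and the treated figure was expressed relative to the control figure.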

[1] = dose: 100.0 mg/kg/injection, schedule: Q01DX009 (ip), vehicle: saline
[2] = dose: 100.0 mg/kg/injection, schedule: Q04DX003 (ip), vehicle: saline
[3] = dose: 100.0 mg/kg/injection, schedule: Q01DX009 (ip), vehicle: saline sonified
[4] = dose: 100.0 mg/kg/injection, schedule: Q01DX001 (ip), vehicle: saline
[5] = dose: 400.0 mg/kg/injection, schedule: Q01DX001 (ip), vehicle: saline
[6] = dose: 100.0 mg/kg/injection, schedule: Q01DX001 (ip), vehicle: saline sonified
[7] = dose: 200.0 mg/kg/injection, schedule: Q01DX001 (ip), vehicle: saline sonified
[8] = dose: 100.0 mg/kg/injection, schedule: Q04DX003 (ip), vehicle: Klucel (hydroxypropylcellulose) (HPC)
[9] = dose: 200.0 mg/kg/injection, schedule: Q04DX003 (ip), vehicle: Klucel (hydroxypropylcellulose) (HPC)
[10] = dose: 400.0 mg/kg/injection, schedule: Q04DX003 (ip), vehicle: Klucel (hydroxypropylcellulose) (HPC)
[11] = dose: 100.0 mg/kg/injection, schedule: Q04DX003 (ip), vehicle: saline with Tween-80
[12] = dose: 200.0 mg/kg/injection, schedule: Q04DX003 (ip), vehicle: saline with Tween-80
[13] = dose: 400.0 mg/kg/injection, schedule: Q04DX003 (ip), vehicle: saline with Tween-80
[14] = dose: 200.0 mg/kg/injection, schedule: Q01DX009 (ip), vehicle: saline
[15] = dose: 400.0 mg/kg/injection, schedule: Q01DX009 (ip), vehicle: saline

Measured: T/C

OCCN1CCC(CCCC2CCNCC2)CC1
inactive: dose: 10.0 mg/kg/injection, schedule: Q01DX Z (ip), vehicle: saline 97 % of control | dose: 25.0 mg/kg/injection, schedule: Q01DX009 (ip), vehicle: saline 102 % of control | dose: 25.0 mg/kg/injection, schedule: Q04DX003 (ip), vehicle: saline 111 % of control | dose: 30.0 mg/kg/injection, schedule: Q01DX Z (ip), vehicle: saline 102 % of control | dose: 50.0 mg/kg/injection, schedule: Q01DX009 (ip), vehicle: saline 96 % of control | dose: 50.0 mg/kg/injection, schedule: Q04DX003 (ip), vehicle: saline 98 % of control | [1] 91 % of control | [2] 108 % of control

Cc1ccc(NC(=O)Nc2cc(S(=O)(=O)O)ccc2Oc2ccccc2Cl)cc1
inactive: [3] 95 % of control | dose: 200.0 mg/kg/injection, schedule: Q01DX009 (ip), vehicle: saline sonified 103 % of control

O=C(O)C1(NC2CCCCC2)CCCCC1
inactive: dose: 5.0 mg/kg/injection, schedule: Q01DX Z (ip), vehicle: methylcellulose (MC) 104 % of control | dose: 10.0 mg/kg/injection, schedule: Q01DX Z (ip), vehicle: methylcellulose (MC) 114 % of control | dose: 20.0 mg/kg/injection, schedule: Q01DX Z (ip), vehicle: methylcellulose (MC) 99 % of control | dose: 40.0 mg/kg/injection, schedule: Q01DX Z (ip), vehicle: methylcellulose (MC) 100 % of control | dose: 80.0 mg/kg/injection, schedule: Q01DX Z (ip), vehicle: methylcellulose (MC) 99 % of control

CCC(/C=C\C(C)C1CCC2C3CC=C4CC(O)CCC4(C)C3CCC12C)C(C)C (stereo not drawn)
inactive: dose: 75.0 mg/kg/injection, schedule: Q01DX009 (sc), vehicle: steriod suspending solution 94 % of control | dose: 100.0 mg/kg/injection, schedule: Q01DX001 (ip), vehicle: carboxymethylcellulose (CMC) 89 % of control | dose: 100.0 mg/kg/injection, schedule: Q04DX003 (sc), vehicle: steriod suspending solution 97 % of control | dose: 150.0 mg/kg/injection, schedule: Q01DX009 (sc), vehicle: steriod suspending solution 98 % of control | dose: 200.0 mg/kg/injection, schedule: Q01DX001 (ip), vehicle: carboxymethylcellulose (CMC) 89 % of control | dose: 200.0 mg/kg/injection, schedule: Q04DX003 (sc), vehicle: steriod suspending solution 100 % of control | dose: 300.0 mg/kg/injection, schedule: Q01DX009 (sc), vehicle: steriod suspending solution 97 % of control | dose: 400.0 mg/kg/injection, schedule: Q01DX001 (ip), vehicle: carboxymethylcellulose (CMC) 86 % of control | dose: 400.0 mg/kg/injection, schedule: Q04DX003 (sc), vehicle: steriod suspending solution 95 % of control

CC1(C)NC(C(=O)O)C(C)(C)S1 (stereo not drawn)
inactive: [4] 100 % of control | dose: 200.0 mg/kg/injection, schedule: Q01DX001 (ip), vehicle: saline 89 % of control | [5] 95 % of control

CC1(C)CN(C(C)(C)C)CC(C)(C)C(=O)C1=O
inactive: dose: 50.0 mg/kg/injection, schedule: Q01DX001 (ip), vehicle: saline sonified 91 % of control | [6] 98 % of control | [7] 87 % of control

NC(N)=N/C(N)=N\c1nn[nH]n1
inactive: [6] 96 % of control | [3] 91 % of control | [7] 100 % of control | dose: 400.0 mg/kg/injection, schedule: Q01DX001 (ip), vehicle: saline sonified 93 % of control | dose: 400.0 mg/kg/injection, schedule: Q01DX009 (ip), vehicle: saline sonified 92 % of control

CC(C)c1ccccc1OS(=O)(=O)c1ccc([N+](=O)[O-])cc1
inactive: dose: 100.0 mg/kg/injection, schedule: Q01DX009 (ip), vehicle: saline with Tween-80 103 % of control | [8] 103 % of control | dose: 200.0 mg/kg/injection, schedule: Q01DX009 (ip), vehicle: saline with Tween-80 92 % of control | [9] 105 % of control | dose: 400.0 mg/kg/injection, schedule: Q01DX009 (ip), vehicle: saline with Tween-80 90 % of control | [10] 92 % of control

COc1ccc(CC(N)C(=O)N2CC(n3cnc4c(N(C)C)ncnc43)CC2CO)cc1 (stereo not drawn)
inactive: dose: 25.0 mg/kg/injection, schedule: Q04DX002 (ip), vehicle: saline 98 % of control | dose: 50.0 mg/kg/injection, schedule: Q04DX002 (ip), vehicle: saline 119 % of control | dose: 100.0 mg/kg/injection, schedule: Q04DX002 (ip), vehicle: saline 105 % of control

CCN(CC)/N=N/c1[nH]ncc1C(N)=O
inactive: dose: 88.0 mg/kg/injection, schedule: Q01DX009 (ip), vehicle: saline with Tween-80 119 % of control | dose: 100.0 mg/kg/injection, schedule: Q01DX001 (ip), vehicle: saline with Tween-80 111 % of control | [11] 101 % of control | dose: 200.0 mg/kg/injection, schedule: Q01DX001 (ip), vehicle: saline with Tween-80 103 % of control | [12] 103 % of control | dose: 300.0 mg/kg/injection, schedule: Q01DX009 (ip), vehicle: saline with Tween-80 110 % of control | dose: 400.0 mg/kg/injection, schedule: Q01DX001 (ip), vehicle: saline with Tween-80 106 % of control | [13] 108 % of control

CCOC(=O)CN1CC(=O)OC(C(Cl)(Cl)Cl)C1 (stereo not drawn)
inactive: [11] 98 % of control | [12] 90 % of control | [13] 93 % of control

O=C(c1ccccc1)c1ccc(C(=O)c2ccccc2)c2c1C(=O)c1ccccc1C2=O
inactive: [11] 92 % of control | [12] 95 % of control | [13] 98 % of control

COc1ccc(NC2=CC(=O)N(c3ccc(OC)cc3)C2=O)cc1
inactive: dose: 100.0 mg/kg/injection, schedule: Q04DX003 (ip), vehicle: other 86 % of control | dose: 200.0 mg/kg/injection, schedule: Q04DX003 (ip), vehicle: other 98 % of control | dose: 400.0 mg/kg/injection, schedule: Q04DX003 (ip), vehicle: other 98 % of control

COC(=O)C1=CO[C@@H](C)[C@@H]2Cn3ccc4c5ccccc5nc-4c3C[C@H]12
inactive: [4] 109 % of control | [5] 95 % of control

CC(=O)OCC(C)OC(C)=O (stereo not drawn)
inactive: [1] 98 % of control | [2] 106 % of control | [14] 95 % of control | dose: 200.0 mg/kg/injection, schedule: Q04DX003 (ip), vehicle: saline 97 % of control | [15] 92 % of control | dose: 400.0 mg/kg/injection, schedule: Q04DX003 (ip), vehicle: saline 97 % of control

CC1(CO)COC2(CCCCC2)N1 (stereo not drawn)
inactive: dose: 75.0 mg/kg/injection, schedule: Q01DX001 (ip), vehicle: saline 102 % of control | dose: 150.0 mg/kg/injection, schedule: Q01DX001 (ip), vehicle: saline 92 % of control | dose: 300.0 mg/kg/injection, schedule: Q01DX001 (ip), vehicle: saline 96 % of control

COC(=O)C1C2CC3C(OC(=O)C31)C2Br (stereo not drawn)
inactive: dose: 100.0 mg/kg/injection, schedule: Q01DX001 (ip), vehicle: Klucel (hydroxypropylcellulose) (HPC) 98 % of control | dose: 100.0 mg/kg/injection, schedule: Q01DX009 (ip), vehicle: Klucel (hydroxypropylcellulose) (HPC) 102 % of control | [8] 104 % of control | dose: 200.0 mg/kg/injection, schedule: Q01DX001 (ip), vehicle: Klucel (hydroxypropylcellulose) (HPC) 103 % of control | dose: 200.0 mg/kg/injection, schedule: Q01DX009 (ip), vehicle: Klucel (hydroxypropylcellulose) (HPC) 93 % of control | [9] 105 % of control | dose: 400.0 mg/kg/injection, schedule: Q01DX001 (ip), vehicle: Klucel (hydroxypropylcellulose) (HPC) 109 % of control | dose: 400.0 mg/kg/injection, schedule: Q01DX009 (ip), vehicle: Klucel (hydroxypropylcellulose) (HPC) 94 % of control | [10] 107 % of control

CC(=O)C(C(c1ccccc1)N1CCOCC1)N1CCOCC1 (stereo not drawn)
inactive: dose: 100.0 mg/kg/injection, schedule: Q04DX002 (ip), vehicle: Klucel (hydroxypropylcellulose) (HPC) 100 % of control | [11] 97 % of control | dose: 200.0 mg/kg/injection, schedule: Q04DX002 (ip), vehicle: Klucel (hydroxypropylcellulose) (HPC) 110 % of control | [12] 96 % of control | dose: 400.0 mg/kg/injection, schedule: Q04DX002 (ip), vehicle: Klucel (hydroxypropylcellulose) (HPC) 100 % of control | [13] 93 % of control

O=CN1CCCc2cc(C(=O)O)ccc21
inactive: [1] 90 % of control | [14] 93 % of control | [15] 86 % of control

COc1ccc(OCC(=O)c2ccccc2)cc1
inactive: [8] 102 % of control | [9] 98 % of control | [10] 98 % of control
